Test results taken from ChEMBL document CHEMBL1150945, “New p-terphenyl and polyketide metabolites from the sclerotia of Penicillium raistrickii” (1998).
The source made the active and inactive calls. No cut-off for these calls is given here.

Tests used:
Carpophilus = assay: Antiinsectan activity against Carpophilus hemipterus assessed as reduction in feeding rate at 400 to 500 ppm relative to control; type: functional; set-up: scale not given: the % may be the effect or the level left
Helicoverpa zea [1] = assay: Insecticidal activity against corn ear worm larvae at 400 to 500 ppm relative to control; type: functional
Candida albicans = assay: Antifungal activity against Candida albicans ATCC 14053 at 200 ug/disk by standard disk assay; type: functional, organism-based
Staphylococcus aureus = assay: Antibacterial activity against Staphylococcus aureus ATCC 29213 at 200 ug/disk by standard disk assay; type: functional; settings: read-out: IZ
Bacillus subtilis = assay: Antibacterial activity against Bacillus subtilis ATCC 6051 at 200 ug/disk by standard disk assay; type: functional; settings: read-out: IZ
Helicoverpa zea [2] = assay: Insecticidal activity against corn ear worm larvae at 500 ppm relative to control; type: functional

| Compound | Activity (Carpophilus) | Activity (Helicoverpa zea [1]) | Activity (Candida albicans) | zone of inhibition at 200 µg/disc (Staphylococcus aureus) | zone of inhibition at 200 µg/disc (Bacillus subtilis) | Activity (Helicoverpa zea [2]) |
| --- | --- | --- | --- | --- | --- | --- |
| COC1=CC(=O)C[C@@H](C)[C@]12Oc1c(Cl)c(OC)cc(OC)c1C2=O [GRISEOFULVIN] | 30% | 70% | – | – | – | – |
| Cc1cc(O)c(O)c2oc3cc(O)cc(O)c3c(=O)c12 | – | – | inactive | 11 mm | 12 mm | – |
| COc1c(-c2ccc(O)c(O)c2)cc(O)c2c1oc1cc(O)c(O)cc12 | – | – | inactive | – | – | – |
| COc1c(-c2ccc(O)c(O)c2)cc(O)c(-c2ccc(O)c(O)c2)c1O | – | – | inactive | 13 mm | – | 28% |
